Results: patent US11161850B2, “Fused pyrazine derivatives as A2A / A2B inhibitors” (Incyte Corporation, priority 2018, dated 2021)
pEC50, pKi: −log10 of the molar value. Where two headings read alike, the source gives them in different places.

Tests used:
[1] = biological target: Adenosine A2A (Homo sapiens (Human), UniProt P29274); assay: A2A Tag-Lite HTRF assay; assay type: binding
From the text: Example C. A2A Tag-Lite® HTRF Assay

[2] = biological target: human adenosine A2B receptor (Homo sapiens (Human), UniProt P29275); assay: Adenosine A2B Receptor Cyclic AMP GS Assay; assay type: cell-based; details: HEK-293 cells expressing human A2B, agonist NECA 12 nM; for EC50: A2B_cAMP_EC50 (nM)
Chain of human adenosine A2B receptor (P29275 whole entry): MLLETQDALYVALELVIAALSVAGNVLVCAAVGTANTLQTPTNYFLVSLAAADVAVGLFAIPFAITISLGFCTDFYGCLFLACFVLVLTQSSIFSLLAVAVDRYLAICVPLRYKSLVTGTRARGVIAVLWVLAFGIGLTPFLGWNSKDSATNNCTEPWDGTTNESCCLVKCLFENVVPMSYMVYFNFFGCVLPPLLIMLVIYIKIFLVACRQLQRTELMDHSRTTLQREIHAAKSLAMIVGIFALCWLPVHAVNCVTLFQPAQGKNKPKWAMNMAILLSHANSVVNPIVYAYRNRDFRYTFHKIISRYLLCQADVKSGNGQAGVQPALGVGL
Experimental: Example B. Adenosine A2B Receptor Cyclic AMP GS Assay
Stably transfected HEK-293 cells expressing the human adenosine A2B receptor (Perkin Elmer) were maintained in MEM culture medium with 10% FBS and 100 μg/mL Geneticin (Life Technologies). 18 to 24 hours prior to assay, geneticin was removed from culture. The cisbio cAMP-GS Dynamic kit utilizing the FRET (Fluorescence Resonance Energy Transfer) technology was used to measure cAMP accumulation in the cells. Compounds of the present disclosure at an appropriate concentration were mixed with 10000 cells/well in white 96 well half area plates (Perkin Elmer) for 30 min at room temperature gently shaking. Agonist, NECA (R&D Technologies) at 12 nM was added to each well for 60 min at room temperature gently shaking. Detection reagents, d2-labeled cAMP (acceptor) and anti-cAMP cryptate (donor) were added to each well for 60 min at rt gently shaking. Plates were read on Pherastar (BMG Labtech), fluorescence ratio 665/620 was calculated and EC50 determination was performed by fitting the curve of percent of control versus the log of the compound concentration using GraphPad Prism.

[3] = Tag-Lite Adenosine A2A labeled cells, fluorescent ligand 12.5 nM, read-out: A2A_Ki

Chain of Adenosine A2A (P29274 whole entry): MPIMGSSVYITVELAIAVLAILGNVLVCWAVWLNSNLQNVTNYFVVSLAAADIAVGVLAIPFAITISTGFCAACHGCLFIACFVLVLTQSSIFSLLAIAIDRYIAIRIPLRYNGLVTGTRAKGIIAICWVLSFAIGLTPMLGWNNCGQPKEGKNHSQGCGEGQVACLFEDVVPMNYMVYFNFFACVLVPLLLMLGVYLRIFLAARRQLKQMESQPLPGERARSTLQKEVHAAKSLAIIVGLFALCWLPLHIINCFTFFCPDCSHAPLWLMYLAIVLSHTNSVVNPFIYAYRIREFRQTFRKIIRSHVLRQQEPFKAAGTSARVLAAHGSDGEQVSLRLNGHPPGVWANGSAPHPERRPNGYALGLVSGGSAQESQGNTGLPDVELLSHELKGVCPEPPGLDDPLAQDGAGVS

| SMILES | pKi ([1]; read-out: A2A_Ki, Tag-Lite Adenosine A2A labeled cells, fluorescent ligand 12.5 nM) | pEC50 ([2]; read-out: A2B_cAMP_EC50) | pKi [1, 3] | EC50 [2] | pKi [1] |
| --- | --- | --- | --- | --- | --- |
| N#Cc1cccc(-c2nc(N)c3nc(C(O)c4ccccc4F)nn3c2-c2ccncn2)c1 (single isomer, unassigned) [Example 56, 3-(8-Amino-2-((2-fluorophenyl)(hydroxy)methyl)-5-(pyrimidin-4-yl)-[1,2,4]triazolo[1,5-a]pyrazin-6-yl)benzonitrile] | > 8.00 | > 8.00 |  |  |  |
| Cn1nccc1-c1cccc(F)c1Cc1nc2c(N)nc(-c3cccc(C#N)c3)c(-c3ccncn3)n2n1 [Example 64, 3-(8-amino-2-(2-fluoro-6-(1-methyl-1H-pyrazol-5-yl)benzyl)-5-(pyrimidin-4-yl)-[1,2,4]triazolo[1,5-a]pyrazin-6-yl)benzonitrile] |  |  | > 8.00 | < 10 nM |  |
| CCn1nncc1-c1c(-c2cccc(C#N)c2)nc(N)c2cc(Cc3ccccn3)nn12 [Example 36, 3-(4-Amino-7-(1-ethyl-1H-1,2,3-triazol-5-yl)-2-(pyridin-2-ylmethyl)pyrazolo[1,5-a]pyrazin-6-yl)benzonitrile] |  |  | > 8.00 | < 10 nM |  |
| N#Cc1cccc(-c2nc(N)c3nc(Cc4ccccc4CN4CC[C@H](O)C4)nn3c2-c2ccncn2)c1 [Example 123, (S)-3-(8-Amino-2-(2-((3-hydroxypyrrolidin-1-yl)methyl)benzyl)-5-(pyrimidin-4-yl)-[1,2,4]triazolo[1,5-a]pyrazin-6-yl)benzonitrile] |  |  | > 8.00 | 10 to 100 nM |  |
| CCNC(=O)c1cc2c(N)nc(-c3cccc(C#N)c3)c(-c3ccncn3)n2n1 [Example 4, 4-Amino-6-(3-cyanophenyl)-N-ethyl-7-(pyrimidin-4-yl)pyrazolo[1,5-a]pyrazine-2-carboxamide] |  |  | > 8.00 | 10 to 100 nM |  |
| N#Cc1cccc(-c2nc(N)c3nc(Cn4ccc5cccnc54)nn3c2-c2ccncn2)c1 [Example 32, 3-(2-((1H-Pyrrolo[2,3-b]pyridin-1-yl)methyl)-8-amino-5-(pyrimidin-4-yl)-[1,2,4]triazolo[1,5-a]pyrazin-6-yl)benzonitrile] |  |  | > 8.00 | < 10 nM |  |
| N#Cc1cccc(-c2nc(N)c3nc(Oc4ccccc4F)nn3c2-c2ccncn2)c1 [Example 39, 3-(8-Amino-2-(2-fluorophenoxy)-5-(pyrimidin-4-yl)-[1,2,4]triazolo[1,5-a]pyrazin-6-yl)benzonitrile] |  |  | > 8.00 | < 10 nM |  |
| N#Cc1cccc(-c2nc(N)c3cc(C(O)c4ccccc4F)nn3c2-c2ccncn2)c1 (racemic) [Example 23, 3-(4-Amino-2-((2-fluorophenyl)(hydroxy)methyl)-7-(pyrimidin-4-yl)pyrazolo[1,5-a]pyrazin-6-yl)benzonitrile] |  |  | > 8.00 | < 10 nM |  |
| N#Cc1cccc(-c2nc(N)c3nc(C(O)c4ccccc4Cl)nn3c2-c2ccncn2)c1 (single isomer, unassigned) [Example 57, 3-(8-Amino-2-((2-chlorophenyl)(hydroxy)methyl)-5-(pyrimidin-4-yl)-[1,2,4]triazolo[1,5-a]pyrazin-6-yl)benzonitrile] |  |  |  | < 10 nM | > 8.00 |
| CCc1ncoc1-c1c(-c2cccc(C#N)c2)nc(N)c2nc(Cc3ccccn3)nn12 [Example 43, 3-(8-Amino-5-(4-ethyloxazol-5-yl)-2-(pyridin-2-ylmethyl)-[1,2,4]triazolo[1,5-a]pyrazin-6-yl)benzonitrile] |  |  | > 8.00 | < 10 nM |  |
| CCNC(=O)c1cc2c(N)nc(-c3cccc(C#N)c3)c(-c3ccnn3CC)n2n1 [Example 1, 4-Amino-6-(3-cyanophenyl)-N-ethyl-7-(1-ethyl-1H-pyrazol-5-yl)pyrazolo[1,5-a]pyrazine-2-carboxamide] |  |  | > 8.00 | 10 to 100 nM |  |
| N#Cc1cccc(-c2nc(N)c3nc(C(O)c4c(F)cccc4F)nn3c2-c2cnco2)c1 (single isomer, unassigned) [Example 105, 3-(8-amino-2-((2,6-difluorophenyl)(hydroxy)methyl)-5-(oxazol-5-yl)-[1,2,4]triazolo[1,5-a]pyrazin-6-yl)benzonitrile] |  |  |  | < 10 nM | > 8.00 |
